According to publication doi:10.1101/2025.07.02.662713v1, “A FRET-based high-throughput screening assay for the discovery of Mycobacterium tuberculosis DNA ADP-ribosylglycohydrolase DarG inhibitors” (biorxiv, 2025):

How the values were obtained:
[1] = biological target: T1, MtbDarG MD; CFP-MtbDarG MD (Mycobacterium tuberculosis, UniProt O53605); assay: FRET displacement of PARylated YFP-GAP; type: binding
T1 construct: gene darG

PARP9 MD1 = biological target: T2, PARP9 MD1 (Homo sapiens, UniProt Q8IXQ6); assay: FRET displacement of MARylated YFP-GAP; type: binding
T2 construct: macrodomain 1 only, CFP fusion, produced as described earlier

T. aq. DarG; T.aq. DarG = biological target: T3, T. aq. DarG; T.aq. DarG (Thermus aquaticus, UniProt P0DV57); assay: gel-based ADP-ribosyl-ssDNA hydrolysis assay; type: biochemical; details: 1 µM hydrolase, pranlukast 2-250 µM, pre-incubation 10 min; Tris pH 7.5, 37 °C, 30 min
T3 construct: recombinant, prepared as previously published
T3 sequence (P0DV57 1-360): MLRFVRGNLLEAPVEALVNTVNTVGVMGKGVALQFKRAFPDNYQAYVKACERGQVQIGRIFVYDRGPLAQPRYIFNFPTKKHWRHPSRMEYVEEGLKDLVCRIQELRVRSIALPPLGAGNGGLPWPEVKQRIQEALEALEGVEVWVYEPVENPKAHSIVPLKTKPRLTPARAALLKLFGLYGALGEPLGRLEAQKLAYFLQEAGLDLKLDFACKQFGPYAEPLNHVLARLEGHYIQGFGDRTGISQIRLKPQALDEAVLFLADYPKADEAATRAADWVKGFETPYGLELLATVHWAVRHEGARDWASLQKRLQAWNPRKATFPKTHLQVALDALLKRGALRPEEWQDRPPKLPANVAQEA
Source text: gel-based ADP-ribosyl-ssDNA hydrolysis assay on T. aq. DarG; T.aq.

PARP15 MD1 = biological target: T4, PARP15 MD1 (Homo sapiens, UniProt Q460N3); assay: FRET displacement of MARylated YFP-GAP; type: binding
T4 construct: macrodomain 1 only, CFP fusion, produced as described earlier
T4 sequence (Q460N3 78-267 limits assumed): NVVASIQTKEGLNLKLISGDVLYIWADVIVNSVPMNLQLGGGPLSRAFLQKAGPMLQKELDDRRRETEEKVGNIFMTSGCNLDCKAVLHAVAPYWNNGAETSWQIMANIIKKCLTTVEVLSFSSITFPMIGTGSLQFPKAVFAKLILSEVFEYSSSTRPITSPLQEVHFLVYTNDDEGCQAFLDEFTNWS

SCO6735 = biological target: T5, SCO6735 (Streptomyces coelicolor, UniProt Q9X7P1); assay: gel-based ADP-ribosyl-ssDNA hydrolysis assay; type: biochemical; details: 1 µM hydrolase, pranlukast 2-250 µM, pre-incubation 10 min; Tris pH 7.5, 37 °C, 30 min
T5 construct: recombinant, prepared as previously published
T5 sequence (Q9X7P1 1-161): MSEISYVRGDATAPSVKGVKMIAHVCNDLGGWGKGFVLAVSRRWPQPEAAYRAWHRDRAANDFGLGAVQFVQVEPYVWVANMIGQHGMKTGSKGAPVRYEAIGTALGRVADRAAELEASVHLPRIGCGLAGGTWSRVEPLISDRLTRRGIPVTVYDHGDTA

PARP14 MD1 = biological target: T6, PARP14 MD1 (Homo sapiens, UniProt Q460N5); assay: FRET displacement of MARylated YFP-GAP; type: binding
T6 construct: macrodomain 1 only, CFP fusion, produced as described earlier
T6 sequence (Q460N5 791-978 limits assumed): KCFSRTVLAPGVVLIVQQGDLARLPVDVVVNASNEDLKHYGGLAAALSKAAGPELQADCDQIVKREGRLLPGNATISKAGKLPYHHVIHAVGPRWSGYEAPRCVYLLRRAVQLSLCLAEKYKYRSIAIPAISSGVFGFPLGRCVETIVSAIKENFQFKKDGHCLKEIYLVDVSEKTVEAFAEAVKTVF

[2] = biological target: T7, MtbDarG (hydrolysis assay) (Mycobacterium tuberculosis, UniProt O53605); assay: gel-based ADP-ribosyl-ssDNA hydrolysis assay; type: biochemical; details: 1 µM hydrolase, pranlukast 2-250 µM, pre-incubation 10 min; Tris pH 7.5, 37 °C, 30 min
T7 construct: gene darG
T7 sequence (O53605 whole entry): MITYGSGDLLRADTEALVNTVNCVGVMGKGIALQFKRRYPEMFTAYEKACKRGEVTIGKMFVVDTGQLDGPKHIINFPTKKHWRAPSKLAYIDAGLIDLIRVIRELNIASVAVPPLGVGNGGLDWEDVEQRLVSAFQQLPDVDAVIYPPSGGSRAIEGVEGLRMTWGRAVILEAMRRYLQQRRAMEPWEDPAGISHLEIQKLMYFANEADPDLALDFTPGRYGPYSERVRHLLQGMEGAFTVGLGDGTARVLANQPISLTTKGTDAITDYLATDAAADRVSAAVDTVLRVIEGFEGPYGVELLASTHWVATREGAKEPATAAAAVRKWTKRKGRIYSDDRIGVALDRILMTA

T1 sequence (O53605 1-155): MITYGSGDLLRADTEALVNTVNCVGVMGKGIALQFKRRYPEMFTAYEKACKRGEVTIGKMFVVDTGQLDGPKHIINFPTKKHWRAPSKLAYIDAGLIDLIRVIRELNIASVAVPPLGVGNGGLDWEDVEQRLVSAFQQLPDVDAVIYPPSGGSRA

SMILES	IC50 [1]	IC50 (PARP9 MD1)	gel-based ADP-ribosyl-ssDNA hydrolysis assay (T. aq. DarG; T.aq. DarG)	IC50 (PARP15 MD1)	gel-based ADP-ribosyl-ssDNA hydrolysis assay (SCO6735)	IC50 (PARP14 MD1)	gel-based ADP-ribosyl-ssDNA hydrolysis assay [2]
COc1ccc(-c2ccccc2)cc1NS(=O)(=O)c1cc(Cl)cc(Cl)c1O [BMS303141]	18.7 µM	–	–	–	–	–	–
Cc1cc(SCc2sc(-c3ccc(C(F)(F)F)cc3)nc2C)ccc1OCC(=O)O [GW501516]	56.5 µM	–	–	–	–	–	–
O=C(Nc1cccc2c(=O)cc(-c3nn[nH]n3)oc12)c1ccc(OCCCCc2ccccc2)cc1 [pranlukast]	4 µM	~100 µM	pranlukast exhibited an even higher inhibitory potency against DarG from Thermus aquaticus bacterium	~100 µM	DarG from Thermus aquaticus bacterium (T.aq. DarG) and SCO6735	~100 µM	pranlukast inhibited the enzymatic activity of MtbDarG on this ADP-ribosylated ssDNA substrate
O=C(O)C(=O)c1cn(Cc2ccccc2)c2ccc(-c3ccc(OC(F)(F)F)cc3)cc12 [tiplaxtinin]	5.7 µM	–	–	–	–	–	–
